Values after ≈ are worked out from the molar mass of the structure shown.
Columns and labels:
[1] = test system: Actinetobacter SP CMX 669; assay: MIC, agar dilution method (Brain Heart Infusion agar); assay type: cell-based; details: Actinetobacter SP CMX 669, grown aerobically, BHI agar, read-out: Minimum inhibitory concentrations
Protocol: (§1) Minimum inhibitory concentration (MIC) was determined by the agar dilution method, described hereinbelow, using Brain Heart Infusion agar.
(§2) Twelve petri dishes were prepared, each containing successive aqueous 2-fold dilutions of the test compounds mixed with 10 mL of sterilized Brain Heart Infusion (BHI) agar.
(§3) The MIC was defined as the lowest concentration of test compound yielding no growth, a slight haze, or sparsely isolated colonies on the inoculum spot as compared to the growth control containing no test compound.

[2] = test system: Campylobacter jejuni ATTC 29428; assay: as above; assay type: cell-based; details: ATTC29428, Campylobacter jejuni ATTC 29428, grown aerobically, BHI agar, read-out: Minimum inhibitory concentrations
Protocol: as §1, §2, §3

[3] = test system: Enterobacter aerogenes ATCC 13048; assay: as above; assay type: cell-based; details: Klebsiella aerogenes, ATCC13048, Enterobacter aerogenes ATCC 13048, grown aerobically, BHI agar, read-out: Minimum inhibitory concentrations
Protocol: as §1, §2, §3

[4] = test system: Enterobacter cloacae CMX 650A; assay: as above; assay type: cell-based; details: CMX650A, grown aerobically, BHI agar, read-out: Minimum inhibitory concentrations
Protocol: as §1, §2, §3

[5] = test system: Enterococcus faecium ATCC 8043; assay: as above; assay type: cell-based; details: ATCC8043, Enterococcus faecium ATCC 8043, grown aerobically, BHI agar, read-out: Minimum inhibitory concentrations
Protocol: as §1, §2, §3

Escherichia coli JUHL = assay: as above; assay type: cell-based; details: grown aerobically, BHI agar, read-out: Minimum inhibitory concentrations
Protocol: as §1, §2, §3

Escherichia coli SS = assay: as above; assay type: cell-based; details: grown aerobically, BHI agar, read-out: Minimum inhibitory concentrations
Protocol: as §1, §2, §3

[6] = test system: Haemophilus influenzae 503B; assay: as above; assay type: cell-based; details: grown aerobically, BHI agar, read-out: Minimum inhibitory concentrations
Protocol: as §1, §2, §3

[7] = test system: Klebsiella pneumoniae ATCC 8045; assay: as above; assay type: cell-based; details: ATCC8045, Klebsiella pneumoniae ATCC 8045, grown aerobically, BHI agar, read-out: Minimum inhibitory concentrations
Protocol: as §1, §2, §3

[8] = test system: Neisseria gonorrhoeae 35FAMPI; assay: as above; assay type: cell-based; details: grown aerobically, BHI agar, read-out: Minimum inhibitory concentrations
Protocol: as §1, §2, §3

[9] = test system: Neisseria gonorrhoeae CMX 591; assay: as above; assay type: cell-based; details: CMX591, Neisseria gonorrhoeae CMX 591, grown aerobically, BHI agar, read-out: Minimum inhibitory concentrations
Protocol: as §1, §2, §3

[10] = test system: Proteus mirabilis CMX 704F; assay: as above; assay type: cell-based; details: CMX704F, grown aerobically, BHI agar, read-out: Minimum inhibitory concentrations
Protocol: as §1, §2, §3

[11] = test system: Proteus vulgaris ABBOTT JJ; assay: as above; assay type: cell-based; details: grown aerobically, BHI agar, read-out: Minimum inhibitory concentrations
Protocol: as §1, §2, §3

[12] = test system: Providencia stuartii CMX 640; assay: as above; assay type: cell-based; details: CMX640, Providencia stuartii CMX 640, grown aerobically, BHI agar, read-out: Minimum inhibitory concentrations
Protocol: as §1, §2, §3

[13] = test system: Pseudomonas aeruginosa A5007; assay: as above; assay type: cell-based; details: Pseudomonas aeruginosa A5007, grown aerobically, BHI agar, read-out: Minimum inhibitory concentrations
Protocol: as §1, §2, §3

[14] = test system: Pseudomonas aeruginosa ATCC 27853; assay: as above; assay type: cell-based; details: ATCC27853, Pseudomonas aeruginosa ATCC 27853, grown aerobically, BHI agar, read-out: Minimum inhibitory concentrations
Protocol: as §1, §2, §3

[15] = test system: Pseudomonas aeruginosa BMH 10; assay: as above; assay type: cell-based; details: BMH10, Pseudomonas aeruginosa BMH 10, grown aerobically, BHI agar, read-out: Minimum inhibitory concentrations
Protocol: as §1, §2, §3

[16] = test system: Pseudomonas aeruginosa CFS 387C; assay: as above; assay type: cell-based; details: CFS387C, grown aerobically, BHI agar, read-out: Minimum inhibitory concentrations
Protocol: as §1, §2, §3

[17] = test system: Pseudomonas aeruginosa CFS 389; assay: as above; assay type: cell-based; details: CFS389, Pseudomonas aeruginosa CFS 389, grown aerobically, BHI agar, read-out: Minimum inhibitory concentrations
Protocol: as §1, §2, §3

[18] = test system: Pseudomonas aeruginosa K799/WT; assay: as above; assay type: cell-based; details: grown aerobically, BHI agar, read-out: Minimum inhibitory concentrations
Protocol: as §1, §2, §3

Pseudomonas cepacia 296I = assay: as above; assay type: cell-based; details: Burkholderia cepacia, grown aerobically, BHI agar, read-out: Minimum inhibitory concentrations
Protocol: as §1, §2, §3

[19] = test system: Serratia marcescens CMX 657E; assay: as above; assay type: cell-based; details: CMX657E, grown aerobically, BHI agar, read-out: Minimum inhibitory concentrations
Protocol: as §1, §2, §3

[20] = test system: Serratia marcescens CMX 740C; assay: as above; assay type: cell-based; details: CMX740C, grown aerobically, BHI agar, read-out: Minimum inhibitory concentrations
Protocol: as §1, §2, §3

Staphylococcus aureus 45 = assay: as above; assay type: cell-based; details: Staphylococcus aureus 45, grown aerobically, BHI agar, read-out: Minimum inhibitory concentrations
Protocol: as §1, §2, §3

[21] = test system: Staphylococcus aureus A5177; assay: as above; assay type: cell-based; details: Staphylococcus aureus A5177, grown aerobically, BHI agar, read-out: Minimum inhibitory concentrations
Protocol: as §1, §2, §3

[22] = test system: Staphylococcus aureus ATCC 6538P; assay: as above; assay type: cell-based; details: ATCC6538P, grown aerobically, BHI agar, read-out: Minimum inhibitory concentrations
Protocol: as §1, §2, §3

[23] = test system: Staphylococcus aureus CMX 686B; assay: as above; assay type: cell-based; details: CMX686B, grown aerobically, BHI agar, read-out: Minimum inhibitory concentrations
Protocol: as §1, §2, §3

[24] = test system: Staphylococcus epidermidis 3519; assay: as above; assay type: cell-based; details: Staphylococcus epidermidis 3519, grown aerobically, BHI agar, read-out: Minimum inhibitory concentrations
Protocol: as §1, §2, §3

[25] = test system: Streptococcus agalactiae CMX 508; assay: as above; assay type: cell-based; details: CMX508, Streptococcus agalactiae CMX 508, grown aerobically, BHI agar, read-out: Minimum inhibitory concentrations
Protocol: as §1, §2, §3

[26] = test system: Streptococcus bovis A 5169; assay: as above; assay type: cell-based; details: Streptococcus equinus, A5169, Streptococcus bovis A 5169, grown aerobically, BHI agar, read-out: Minimum inhibitory concentrations
Protocol: as §1, §2, §3

[27] = test system: Streptococcus pyogenes 930 CONST; assay: as above; assay type: cell-based; details: grown aerobically, BHI agar, read-out: Minimum inhibitory concentrations
Protocol: as §1, §2, §3

[28] = test system: Streptococcus pyogenes EES 614; assay: as above; assay type: cell-based; details: EES614, Streptococcus pyogenes EES 614, grown aerobically, BHI agar, read-out: Minimum inhibitory concentrations
Protocol: as §1, §2, §3

[29] = Solubility (qualitative description); assay type: physicochemical
Source text: High resolution, positive ion fast atom bombardment (FAB) mass spectrometry established identical molecular ions or m/z 835.3576 for the two isomers corresponding to a formula of C₃₃H₄₉N₁₃0₁₃ (calc. 835.3577). UV lambdamax=286 nm. The coumamidine gamma 1 isomer has an imidazolidone ring at the 2 and 3 position of the terminal sugar, and the coumamidine gamma 2 isomer has an oxazolidone ring at positions 3 and 4 of the terminal sugar.

MIC [1] [mg/L] | MIC [3] [mg/L] | MIC [4] [mg/L] | MIC [5] [mg/L] | MIC (Escherichia coli JUHL) [mg/L] | MIC (Escherichia coli SS) [mg/L] | MIC [7] [mg/L] | MIC [10] [mg/L] | MIC [11] [mg/L] | MIC [12] [mg/L] | MIC [13] [mg/L] | MIC [14] [mg/L] | MIC [15] [mg/L] | MIC [16] [mg/L] | MIC [17] [mg/L] | MIC [18] [mg/L] | MIC (Pseudomonas cepacia 296I) [mg/L] | MIC [19] [mg/L] | MIC [20] [mg/L] | MIC (Staphylococcus aureus 45) [mg/L] | SMILES | also measured
0.25 (≈ 0.299 µM) | 1 (≈ 1.2 µM) | 4 (≈ 4.79 µM) | 16 (≈ 19.1 µM) | 0.25 (≈ 0.299 µM) | 0.5 (≈ 0.598 µM) | 0.25 (≈ 0.299 µM) | 1 (≈ 1.2 µM) | 2 (≈ 2.39 µM) | 0.5 (≈ 0.598 µM) | 8 (≈ 9.57 µM) | 8 (≈ 9.57 µM) | 0.25 (≈ 0.299 µM) | 8 (≈ 9.57 µM) | 8 (≈ 9.57 µM) | 8 (≈ 9.57 µM) | 32 (≈ 38.3 µM) | 1 (≈ 1.2 µM) | 2 (≈ 2.39 µM) | 0.5 (≈ 0.598 µM) | CC1OC(Oc2ccc(C=CC(=O)NCCC(=N)N)cc2)C(NC(=N)N)C(O)C1NC(=O)NC1OCC(OC2OCC(O)C3NC(=O)N(C(N)=O)C23)C(O)C1NC(N)=O (stereo not drawn) [gamma 1, coumamidine gamma 1] | MIC [2]: 0.06 mg/L (≈ 0.0718 µM); MIC [6]: 0.03 mg/L (≈ 0.0359 µM); MIC [8]: 0.5 mg/L (≈ 0.598 µM); MIC [9]: 0.5 mg/L (≈ 0.598 µM); MIC [21]: 1 mg/L (≈ 1.2 µM); MIC [22]: 0.25 mg/L (≈ 0.299 µM); MIC [23]: 0.25 mg/L (≈ 0.299 µM); MIC [24]: 0.5 mg/L (≈ 0.598 µM); MIC [25]: 8 mg/L (≈ 9.57 µM); MIC [26]: 16 mg/L (≈ 19.1 µM); MIC [27]: 2 mg/L (≈ 2.39 µM); MIC [28]: 4 mg/L (≈ 4.79 µM); solubility in dimethylsulfoxide [29]: readily soluble; solubility in methanol [29]: slightly soluble; solubility in water [29]: readily soluble
4 (≈ 4.79 µM) | 2 (≈ 2.39 µM) | 4 (≈ 4.79 µM) | 32 (≈ 38.3 µM) | 0.5 (≈ 0.598 µM) | 1 (≈ 1.2 µM) | 0.5 (≈ 0.598 µM) | 1 (≈ 1.2 µM) | 4 (≈ 4.79 µM) | 2 (≈ 2.39 µM) | 16 (≈ 19.1 µM) | 8 (≈ 9.57 µM) | 0.5 (≈ 0.598 µM) | 16 (≈ 19.1 µM) | 8 (≈ 9.57 µM) | 16 (≈ 19.1 µM) | > 32 | 2 (≈ 2.39 µM) | 2 (≈ 2.39 µM) | 1 (≈ 1.2 µM) | CC1OC(Oc2ccc(C=CC(=O)NCCC(=N)N)cc2)C(NC(=N)N)C(O)C1NC(=O)NC1OCC(OC2OCC3OC(=O)NC3C2NC(N)=O)C(O)C1NC(N)=O (stereo not drawn) [gamma 2, coumamidine gamma 2] | MIC [21]: 1 mg/L (≈ 1.2 µM); MIC [22]: 0.5 mg/L (≈ 0.598 µM); MIC [23]: 0.5 mg/L (≈ 0.598 µM); MIC [24]: 1 mg/L (≈ 1.2 µM); MIC [25]: 16 mg/L (≈ 19.1 µM); MIC [26]: 32 mg/L (≈ 38.3 µM); MIC [27]: 1 mg/L (≈ 1.2 µM); MIC [28]: 1 mg/L (≈ 1.2 µM); solubility in dimethylsulfoxide [29]: readily soluble; solubility in methanol [29]: slightly soluble; solubility in water [29]: readily soluble

— EP0423247B1, “COUMAMIDINE COMPOUNDS” (ABBOTT LABORATORIES, priority 1988, dated 1990)
